Test system: NOMO1
Assay: cell viability relative to DMSO control; higher = less cytotoxic
Conditions: 48 h
Summary of the method: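 Viability was expressed as a per-plate percentage of DMSO wells, with cell-free wells as background. Leukemia cells (NOMO1 or SEM at 500 cells/well, P12-Ichikawa at 1000 cells/well) were adapted for at least four passages in each medium and seeded in 1536-well plates (5 μl). Library compounds in DMSO were pin-dosed over an 11-point threefold series from 47 μM to 0.79 nM, and CellTiter-Glo One luminescence was read after 48 h at 37°C.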

[1] = RPMI 5 mM glucose + 10% FBS, 0.000781 µM
[2] = RPMI 5 mM glucose + 10% FBS, 0.00234 µM
[3] = RPMI 5 mM glucose + 10% FBS, 0.00702 µM
[4] = RPMI 5 mM glucose + 10% FBS, 0.0211 µM
[5] = RPMI 5 mM glucose + 10% FBS, 0.0632 µM
[6] = RPMI 5 mM glucose + 10% FBS, 0.19 µM
[7] = RPMI 5 mM glucose + 10% FBS, 0.569 µM
[8] = RPMI 5 mM glucose + 10% FBS, 1.71 µM
[9] = RPMI 5 mM glucose + 10% FBS, 5.12 µM
[10] = RPMI 5 mM glucose + 10% FBS, 15.4 µM
[11] = RPMI 5 mM glucose + 10% FBS, 46.1 µM
[12] = HPLM + 10% dialyzed FBS, 0.000781 µM
[13] = HPLM + 10% dialyzed FBS, 0.00234 µM
[14] = HPLM + 10% dialyzed FBS, 0.00702 µM
[15] = HPLM + 10% dialyzed FBS, 0.0211 µM
[16] = HPLM + 10% dialyzed FBS, 0.0632 µM
[17] = HPLM + 10% dialyzed FBS, 0.19 µM
[18] = HPLM + 10% dialyzed FBS, 0.569 µM
[19] = HPLM + 10% dialyzed FBS, 1.71 µM
[20] = HPLM + 10% dialyzed FBS, 5.12 µM
[21] = HPLM + 10% dialyzed FBS, 15.4 µM
[22] = HPLM + 10% dialyzed FBS, 46.1 µM
[23] = RPMI 5 mM glucose + 10% dialyzed FBS, 0.000781 µM
[24] = RPMI 5 mM glucose + 10% dialyzed FBS, 0.00234 µM
[25] = RPMI 5 mM glucose + 10% dialyzed FBS, 0.00702 µM
[26] = RPMI 5 mM glucose + 10% dialyzed FBS, 0.0211 µM
[27] = RPMI 5 mM glucose + 10% dialyzed FBS, 0.0632 µM
[28] = RPMI 5 mM glucose + 10% dialyzed FBS, 0.19 µM
[29] = RPMI 5 mM glucose + 10% dialyzed FBS, 0.569 µM
[30] = RPMI 5 mM glucose + 10% dialyzed FBS, 1.71 µM
[31] = RPMI 5 mM glucose + 10% dialyzed FBS, 5.12 µM
[32] = RPMI 5 mM glucose + 10% dialyzed FBS, 15.4 µM
[33] = RPMI 5 mM glucose + 10% dialyzed FBS, 46.1 µM

Structure (SMILES)	cell viability [1] [%]	cell viability [2] [%]	cell viability [3] [%]	cell viability [4] [%]	cell viability [5] [%]	cell viability [6] [%]	cell viability [7] [%]	cell viability [8] [%]	cell viability [9] [%]	cell viability [10] [%]	cell viability [11] [%]	cell viability [12] [%]	cell viability [13] [%]	cell viability [14] [%]	cell viability [15] [%]	cell viability [16] [%]	cell viability [17] [%]	cell viability [18] [%]	cell viability [19] [%]	cell viability [20] [%]	cell viability [21] [%]	cell viability [22] [%]	cell viability [23] [%]	cell viability [24] [%]	cell viability [25] [%]	cell viability [26] [%]	cell viability [27] [%]	cell viability [28] [%]	cell viability [29] [%]	cell viability [30] [%]	cell viability [31] [%]	cell viability [32] [%]	cell viability [33] [%]
C[S+](=O)([O-])N1CCN(Cc2cc3nc(-c4cccc5[nH]ncc45)nc(N4CCOCC4)c3s2)CC1	113	133	116	132	128	133	117	107	80.3	80.6	65.5																						
Cc1nnc(C(C)C)n1[C@@H]1C[C@H]2CC[C@@H](C1)N2CC[C@H](NC(=O)C1CCC(F)(F)CC1)c1ccccc1	83.6	82.9	95.2	91.3	84.5	99.9	92	88.5	84.3	91.3	26.3	70.8	93.7	112	93.1	98.7	103	107	104	103	84.5	25.5	68.3	93.2	82.6	84.8	93.2	95.5	95.1	90.3	84.4	67.1	29.9
CCC(=O)N1CCN(CC1)C2=C(C=C(C=C2)N3C(=O)\C=C/C4=C3C5=CC(=CC=C5N=C4)C6=CN=C7C=CC=CC7=C6)C(F)(F)F	98	96.7	96.9	104	90.4	79	72.7	68.2	62.3	64	63.7	93.9	94.4	89.2	90.8	83.2	75	61.4	71.8	72.7	69.2	67	77.6	100	86.3	86.5	82.5	77.6	68.3	60.8	57.6	57.4	54.7
CN(C)c1ccc(-c2nc3c(N4CCN(CC(=O)Nc5nccs5)CC4)c(Cl)cnc3[nH]2)cc1	102	99.3	98.6	94.6	101	108	93.6	109	103	89.9	77.7	117	130	121	124	113	127	112	102	101	89.9	69.2	108	107	103	108	113	106	101	107	98.3	94.8	70.3
C[C@@H](Cc1cc2c(c(C(N)=O)c1)N(CCCO)CC2)NCCOc1ccccc1OCC(F)(F)F	94.5	105	107	106	112	109	110	105	116	110	106	94.5	99.7	101	120	107	123	122	135	111	114	113	89.4	106	106	104	126	115	109	121	116	105	104
N#CC1(c2cccc(C(=O)Nc3cc(Oc4ccc5nc(NC(=O)C6CC6)sc5n4)ccc3F)c2Cl)CC1	115	113	107	100	103	105	104	76.7	48.8	10.7	10.6	105	121	114	113	119	93.8	91	56.6	39.2	18.2	18.2	118	123	96.5	98.2	98.7	90.6	72.9	70.1	53.9	16.9	15.6
CC1=CC/2=C(C=C1C)N(C[C@@H](O)[C@@H](O)[C@@H](O)CO)C/3=N/C(=O)NC(=O)C3=N2	108	108	116	118	116	117	110	120	108	111	98.5	130	119	119	115	124	135	139	125	89.1	127	46.2	113	126	113	123	126	123	128	123	108	107	90.1
Cc1cc(/C=c2/sc3nc4ccccc4n3c2=O)c(C)n1-c1ccccc1	111	128	115	127	125	126	105	111	119	109	104	117	113	128	117	132	120	130	119	128	113	123	121	127	115	137	126	127	121	127	126	133	121

Reference: the supplement of paper PMC11451515
